The source of these data is US20220204498A1, “PYRIDO-PYRIMIDINYL COMPOUNDS AND METHODS OF USE” (Genentech, Inc., priority 2019, published 2022).

Molecules are shown by their SMILES. Structures can show the parent of a compound that is named as a salt.

For this experiment, the target named is T1, IRE1α (Homo sapiens, UniProt O75460, D688N).
T1 construct: containing the kinase and RNase domains (KR, AA G547-1L977, D688N); made in house; host or cells: Sf9 insect cells
T1 sequence (O75460 547-977 D688N): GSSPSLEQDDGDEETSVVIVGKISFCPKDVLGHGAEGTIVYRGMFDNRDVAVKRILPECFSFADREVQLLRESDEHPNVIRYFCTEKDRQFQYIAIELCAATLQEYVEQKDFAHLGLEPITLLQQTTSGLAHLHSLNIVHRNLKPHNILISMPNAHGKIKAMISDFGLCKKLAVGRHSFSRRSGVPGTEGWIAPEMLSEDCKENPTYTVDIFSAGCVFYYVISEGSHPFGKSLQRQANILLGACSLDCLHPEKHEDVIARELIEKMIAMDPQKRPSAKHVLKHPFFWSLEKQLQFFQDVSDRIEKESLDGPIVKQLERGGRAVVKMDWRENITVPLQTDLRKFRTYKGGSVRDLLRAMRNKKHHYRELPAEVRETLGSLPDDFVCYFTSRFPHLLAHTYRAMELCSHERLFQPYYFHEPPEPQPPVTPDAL
The experiment in a line: IRE1α TR-FRET competition binding assay (IRE1α HTRF). The following applies: His-tagged IRE1α kinase dead construct (KR, D688N) 0.25 nM; Alexa fluor 647-labeled ATP competitive probe 2 nM; one hour at room temperature; read-out: IRE1α (alpha) HTRF (IC50). The protocol:
Example 59. IRE1α TR-FRET Competition Binding Assay
To determine the affinity of compound binding to the kinase domain of IRE1α, a time-resolved fluorescence resonance energy transfer (TR-FRET) competition assay was used.
A His-tagged IRE1α kinase dead construct containing the kinase and RNase domains (KR, AA G547-1L977, D688N) was expressed in Sf9 insect cells. The purified protein (final concentration 0.25 nM) was pre-incubated with anti-His Europium labeled antibody (Life Technologies PV5596, final concentration 2 nM) for one hour at 4° C. in TR-FRET Assay Buffer (50 mM HEPES, pH 7.5, 10 mM MgCl2, 0.083 mM Brij 35, 1 mM DTT, and 0.1% bovine gamma globulin) prior to addition to test compounds. An Alexa fluor 647-labeled probe based on an ATP competitive inhibitor was added to a final concentration of 2 nM. Reactions were carried out for one hour at room temperature in a final volume of 20 μL in 384 well white ProxiPlates (Perkin Elmer 6008289). Binding of the probe to the IRE1α protein was detected in an Envision instrument (PerkinElmer) equipped with a TRF laser option and a LANCE/Delfia Dual/Bias D400/D630 mirror (Ex 347 nm, 1st Em 665 nm, 2nd Em 615 nm).
(In general: TR-FRET usually uses a lanthanide donor and a delayed reading to cut background.)
In the case of `Cc1cc(-c2ccc(NC(=O)CC(C)C)c(F)c2)nc2cnc(N[C@H]3CC[C@H](N(C)C)CC3)nc12` [Compound 127, N-(4-(2-(((1,4-trans)-4-(Dimethylamino)cyclohexyl)amino)-8-methylpyrido[3,2-d]pyrimidin-6-yl)-2-fluorophenyl)-3-methylbutanamide], the IC50 worked out at 140 nM.

As to `Cc1cc(-c2ccc(NS(=O)(=O)Cc3ccc(F)cc3)c(F)c2F)nc2cnc(N[C@H]3CC[C@H](N(C)C)CC3)nc12` [Compound 132, N-(4-(2-(((1,4-trans)-4-(Dimethylamino)cyclohexyl)amino)-8-methylpyrido[3,2-d]pyrimidin-6-yl)-2,3-difluorophenyl)-1-(4-fluorophenyl)methanesulfonamide], the IC50 was found to be 0.23 nM.

Take `Cc1cc(-c2ccc(NS(=O)(=O)CCC(F)(F)F)nc2)nc2cnc(N[C@H]3CC[C@H](N(C)C)CC3)nc12` [Compound 125, N-(5-(2-(((1,4-trans)-4-(Dimethylamino)cyclohexyl)amino)-8-methylpyrido[3,2-d]pyrimidin-6-yl)pyridin-2-yl)-3,3,3-trifluoropropane-1-sulfonamide]: the IC50 was 0.44 nM.

With `Cc1nc(NS(=O)(=O)c2ccccc2C#N)ccc1-c1cc(C)c2nc(N[C@H]3CC[C@H](N(C)C)CC3)ncc2n1` [Compound 159, 2-Cyano-N-(5-(2-(((1,4-trans)-4-(dimethylamino)cyclohexyl)amino)-8-methylpyrido[3,2-d]pyrimidin-6-yl)-6-methylpyridin-2-yl)benzenesulfonamide], the IC50 amounted to 0.33 nM.

In the case of `Cc1cc(-c2ccc(NS(=O)(=O)c3ccccc3Cl)nc2)nc2cnc(N[C@H]3CC[C@H](N(C)C)CC3)nc12` [Compound 135, 2-Chloro-N-(5-(2-(((1,4-trans)-4-(dimethylamino)cyclohexyl)amino)-8-methylpyrido[3,2-d]pyrimidin-6-yl)pyridin-2-yl)benzenesulfonamide], the IC50 came to 0.32 nM.

With `Cc1cc(-c2ccc(NS(=O)(=O)CCC(F)(F)F)c(Cl)c2)nc2cnc(N[C@H]3CC[C@H](N(C)C)CC3)nc12` [Compound 120, N-(2-Chloro-4-(2-(((1,4-trans)-4-(dimethylamino)cyclohexyl)amino)-8-methylpyrido[3,2-d]pyrimidin-6-yl)phenyl)-3,3,3-trifluoropropane-1-sulfonamide], the IC50 came out at 0.25 nM.

On to `CCc1cc(-c2ccc(NS(=O)(=O)c3ccccc3Cl)c(F)c2)nc2cnc(N[C@@H]3CNC[C@@H](F)C3)nc12` [Compound 123, 2-Chloro-N-(4-(8-ethyl-2-(((3S,5S)-5-fluoropiperidin-3-yl)amino)pyrido[3,2-d]pyrimidin-6-yl)-2-fluorophenyl)benzenesulfonamide formate], for which the IC50 turned out to be 0.18 nM.

Regarding `CCc1cc(-c2ccc(NS(=O)(=O)CCC(F)(F)F)c(F)c2)nc2cnc(N[C@@H]3CNC[C@@H](F)C3)nc12` [Compound 119, N-(4-(8-Ethyl-2-(((3S,5S)-5-fluoropiperidin-3-yl)amino)pyrido[3,2-d]pyrimidin-6-yl)-2-fluorophenyl)-3,3,3-trifluoropropane-1-sulfonamide formate], the IC50 was determined as 0.39 nM.

Turning to `Cc1nc(NS(=O)(=O)Cc2ccc(F)cc2)ccc1-c1cc(C(F)F)c2nc(N[C@H]3CC[C@H](N(C)C)CC3)ncc2n1` [Compound 133, N-(5-(8-(Difluoromethyl)-2-(((1,4-trans)-4-(dimethylamino)cyclohexyl)amino)pyrido[3,2-d]pyrimidin-6-yl)-6-methylpyridin-2-yl)-1-(4-fluorophenyl)methanesulfonamide], the IC50 worked out at 5.2 nM.

Consider `CCc1cc(-c2ccc(NS(=O)(=O)c3ccccc3F)nc2C)nc2cnc(N[C@H]3CC[C@H](N(C)C)CC3)nc12` [Compound 146, N-(5-(2-(((1,4-trans)-4-(dimethylamino)cyclohexyl)amino)-8-ethylpyrido[3,2-d]pyrimidin-6-yl)-6-methylpyridin-2-yl)-2-fluorobenzenesulfonamide], for which the half-inhibitory concentration (IC50) came out at 0.21 nM.

`CN(C)[C@H]1CC[C@H](Nc2ncc3nc(-c4ccc(NS(=O)(=O)Cc5ccc(F)cc5)c(F)c4)cc(CF)c3n2)CC1` [Compound 130, N-[4-[2-[[(1,4-trans)-4-(Dimethylamino)cyclohexyl]amino]-8-(fluoromethyl)pyrido[3,2-d]pyrimidin-6-yl]-2-fluoro-phenyl]-1-(4-fluorophenyl)methanesulfonamide]: the IC50 worked out at 0.2 nM.

With `Cc1cc(-c2cc(F)c(NS(=O)(=O)Cc3ccc(F)cc3)cc2F)nc2cnc(N[C@H]3CC[C@H](N(C)C)CC3)nc12` [Compound 137, N-(4-(2-(((1,4-trans)-4-(Dimethylamino)cyclohexyl)amino)-8-methylpyrido[3,2-d]pyrimidin-6-yl)-2,5-difluorophenyl)-1-(4-fluorophenyl)methanesulfonamide], the IC50 was 0.23 nM.

In the case of `CC(C)c1cc(-c2ccc(NS(=O)(=O)CCC(F)(F)F)c(F)c2)nc2cnc(N[C@H]3CC[C@H](N(C)C)CC3)nc12` [Compound 124, N-(4-(2-(((1,4-trans)-4-(Dimethylamino)cyclohexyl)amino)-8-isopropylpyrido[3,2-d]pyrimidin-6-yl)-2-fluorophenyl)-3,3,3-trifluoropropane-1-sulfonamide], the IC50 stood at 0.16 nM.

As usually defined, the IC50 is the concentration at which inhibition is half-maximal.
